Experimental data as given in patent US20230398130A1, “METHODS AND COMPOSITIONS FOR DIFFERENTIATING STEM CELLS” (Massachusetts Institute of Technology, priority 2020, published 2023).

Legend:
ISC-enriched organoids [1] = assay: Primary screen, 384-well 2.5-D organoid differentiation (ENR+CD, 6 days, Target Selective Inhibitor Library, vs whole-plate median): ATP (CellTiter-Glo 3D, CTG); conditions: for Dose.FC.CTG (log 2 fold change, ATP): vs plate median
ISC-enriched organoids [2] = assay: Primary screen, 384-well 2.5-D organoid differentiation (ENR+CD, 6 days): basal lysozyme secretion (LYZ.NS); assay type: cell-based, murine; conditions: for Dose.FC.LYZ.NS (log 2 fold change, basal lysozyme secretion): vs plate median
Text: (§1) High-throughput screening.

ISC-enriched organoids [3] = assay: Primary screen, 384-well 2.5-D organoid differentiation (ENR+CD, 6 days): carbachol-induced lysozyme secretion (LYZ.S); assay type: cell-based, murine; conditions: vs plate median
Text: as §1

Structure (SMILES)	Z.CTG (standard z score) (ISC-enriched organoids [1]; dose 0.08 uM)	Dose.FC.CTG (log 2 fold change, ATP) (ISC-enriched organoids [1]; dose 0.08 uM)	Z.CTG (standard z score) (ISC-enriched organoids [1]; dose 0.40 uM)	Dose.FC.CTG (log 2 fold change, ATP) (ISC-enriched organoids [1]; dose 0.40 uM)	Z.CTG (standard z score) (ISC-enriched organoids [1]; dose 2.00 uM)	Dose.FC.CTG (log 2 fold change, ATP) (ISC-enriched organoids [1]; dose 2.00 uM)	Z.CTG (standard z score) (ISC-enriched organoids [1]; dose 10.00 uM)	Dose.FC.CTG (log 2 fold change, ATP) (ISC-enriched organoids [1]; dose 10.00 uM)	Z.LYZ.NS (standard z score) (ISC-enriched organoids [2]; dose 0.08 uM)	Dose.FC.LYZ.NS (log 2 fold change, basal lysozyme secretion) (ISC-enriched organoids [2]; dose 0.08 uM)	Z.LYZ.NS (standard z score) (ISC-enriched organoids [2]; dose 0.40 uM)	Dose.FC.LYZ.NS (log 2 fold change, basal lysozyme secretion) (ISC-enriched organoids [2]; dose 0.40 uM)	Z.LYZ.NS (standard z score) (ISC-enriched organoids [2]; dose 2.00 uM)	Dose.FC.LYZ.NS (log 2 fold change, basal lysozyme secretion) (ISC-enriched organoids [2]; dose 2.00 uM)	Z.LYZ.NS (standard z score) (ISC-enriched organoids [2]; dose 10.00 uM)	Dose.FC.LYZ.NS (log 2 fold change, basal lysozyme secretion) (ISC-enriched organoids [2]; dose 10.00 uM)	Dose.FC.LYZ.S (log 2 fold change, carbachol-induced lysozyme secretion) (ISC-enriched organoids [3]; dose 0.08 uM)	Dose.FC.LYZ.S (log 2 fold change, carbachol-induced lysozyme secretion) (ISC-enriched organoids [3]; dose 0.40 uM)	Dose.FC.LYZ.S (log 2 fold change, carbachol-induced lysozyme secretion) (ISC-enriched organoids [3]; dose 2.00 uM)	Dose.FC.LYZ.S (log 2 fold change, carbachol-induced lysozyme secretion) (ISC-enriched organoids [3]; dose 10.00 uM)
O=C(NCc1ccccc1)c1csc(Nc2ccncn2)n1 [Thiazovivin]	0.337	0.141	0.271	0.113	0.746	0.312	0.451	0.189	0.780	0.090	0.611	0.070	0.205	0.024	−0.605	−0.069	0.142	0.060	0.064	0.037
COc1ccc2cc(-c3nc(-c4ccc([S+](C)[O-])cc4)[nH]c3-c3ccncc3)ccc2c1 (centres unmarked) [Tie2 kinase inhibitor]	0.012	0.005	0.177	0.074	−0.750	−0.314	−1.311	−0.549	0.080	0.009	0.019	0.002	1.577	0.181	−0.274	−0.031	0.018	−0.021	0.024	−0.097
C[C@@H]1CCN(C(=O)CC#N)C[C@@H]1N(C)c1ncnc2[nH]ccc12 [Tofacitinib (CP-690550, Tasocitinib)]	0.312	0.130	0.595	0.249	0.278	0.117	0.563	0.236	−0.146	−0.017	−0.132	−0.015	−0.061	−0.007	−0.036	−0.004	0.022	0.010	0.025	0.010
CC(C)C[C@@H](C(=O)N[C@H](C(=O)OC1CCCC1)c1ccccc1)[C@H](O)C(=O)NO [Tosedostat (CHR2797)]	−0.232	−0.097	0.123	0.051	−0.480	−0.201	−1.117	−0.468	−0.022	−0.002	−0.925	−0.106	−0.432	−0.050	−1.499	−0.172	−0.027	−0.134	−0.128	−0.276
